Counter-ions that a name gives are not always drawn. Like-named read-outs stand apart in the source and are kept apart here.
Tests used:
[1] = biological target: T1, human dopamine D2L receptors (long isoform) (Homo sapiens, UniProt P14416); test: Dopamine D2L receptor binding ([125I] iodospiperone), basis of selectivity Ki(D2)/Ki(D3); details: D2L vs D3
T1 construct: expressed in transfected cells; membranes)
Experimental: The substance to be tested was either dissolved in methanol/Chremophor® (BASF-AG) or in dimethyl sulfoxide and then diluted with water to the desired concentration. […] Each assay mixture was run in triplicate. The incubation buffer contained 50 mM tris, 120 mM NaCl, 5 mM KCl, 2 mM CaCl2, 2 mM MgCl2 and 0.1% bovine serum albumin. The buffer was adjusted to pH 7.4 with HCl. Measurement and Analysis: After having been incubated at 25° C. for 60 minutes, the assay mixtures were filtered through a Wathman GF/B glass fiber filter under vacuum using a cell collecting device. The filters were transferred to scintillation viols using a filter transfer system. After 4 ml of Ultima Gold® (Packard) have been added, the samples were shaken for one hour and the radioactivity was then counted in a Beta-Counter (Packard, Tricarb 2000 or 2200CA). The cpm values were converted into dpm using a standard quench series and the program belonging to the instrument. The inhibition curves were analyzed by means of iterative nonlinear regression analysis using the Statistical Analysis System (SAS) which is similar to the “LIGAND” program described by Munson and Rodbard.

[2] = biological target: T2, human dopamine D3 receptors (Homo sapiens, UniProt P35462); test: Dopamine D3 receptor binding ([125I]-iodosulpride displacement)
T2 construct: expressed in transfected cells; membranes)
Experimental: The substance to be tested was either dissolved in methanol/Chremophor® (BASF-AG) or in dimethyl sulfoxide and then diluted with water to the desired concentration.
Each assay mixture was run in triplicate.
The incubation buffer contained 50 mM tris, 120 mM NaCl, 5 mM KCl, 2 mM CaCl2, 2 mM MgCl2 and 0.1% bovine serum albumin, 10 μM quinolone and 0.1% ascorbic acid (prepared fresh daily). The buffer was adjusted to pH 7.4 with HCl.
Measurement and Analysis:
After having been incubated at 25° C. for 60 minutes, the assay mixtures were filtered through a Wathman GF/B glass fiber filter under vacuum using a cell collecting device. The filters were transferred to scintillation viols using a filter transfer system. After 4 ml of Ultima Gold® (Packard) have been added, the samples were shaken for one hour and the radioactivity was then counted in a Beta-Counter (Packard, Tricarb 2000 or 2200CA). The cpm values were converted into dpm using a standard quench series and the program belonging to the instrument.
The inhibition curves were analyzed by means of iterative nonlinear regression analysis using the Statistical Analysis System (SAS) which is similar to the “LIGAND” program described by Munson and Rodbard.

[3] = Table 5, membranes of HEK-293 cells, read-out: Ki D3
[4] = Table 6, membranes of HEK-293 cells, read-out: ki D3
[5] = compounds II, read-out: Ki D3 values

T1 sequence (P14416 whole entry, canonical isoform): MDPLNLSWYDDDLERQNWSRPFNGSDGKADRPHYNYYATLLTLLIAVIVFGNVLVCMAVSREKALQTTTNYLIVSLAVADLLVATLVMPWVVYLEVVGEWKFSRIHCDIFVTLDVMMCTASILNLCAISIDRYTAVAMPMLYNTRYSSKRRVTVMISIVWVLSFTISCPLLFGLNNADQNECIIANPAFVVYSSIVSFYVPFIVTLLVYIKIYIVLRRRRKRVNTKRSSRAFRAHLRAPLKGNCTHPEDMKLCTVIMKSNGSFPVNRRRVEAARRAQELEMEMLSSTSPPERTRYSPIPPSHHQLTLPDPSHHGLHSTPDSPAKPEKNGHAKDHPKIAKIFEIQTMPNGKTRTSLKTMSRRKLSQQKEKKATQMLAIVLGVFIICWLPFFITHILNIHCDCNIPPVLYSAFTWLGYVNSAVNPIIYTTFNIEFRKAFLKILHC
T2 sequence (P35462 whole entry): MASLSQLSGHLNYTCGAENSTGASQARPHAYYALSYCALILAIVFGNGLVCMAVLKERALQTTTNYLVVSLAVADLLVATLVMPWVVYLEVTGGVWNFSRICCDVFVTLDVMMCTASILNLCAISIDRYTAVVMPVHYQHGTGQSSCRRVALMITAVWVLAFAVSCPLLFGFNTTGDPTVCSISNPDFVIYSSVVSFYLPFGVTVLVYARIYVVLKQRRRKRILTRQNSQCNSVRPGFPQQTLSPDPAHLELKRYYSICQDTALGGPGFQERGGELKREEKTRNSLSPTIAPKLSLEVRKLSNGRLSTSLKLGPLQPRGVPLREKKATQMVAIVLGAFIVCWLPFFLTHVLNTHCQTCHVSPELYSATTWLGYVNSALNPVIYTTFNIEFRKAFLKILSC

Compound	Selectivity [Ki(D2)/Ki(D3)] ([1]; Table 5)	Ki [2, 3]	Ki [2, 5]	further results
Cn1cnnc1S(=O)(=O)CCCN1CCN(c2cc(C3CCC3)nc(C(C)(C)C)n2)CC1 [Example 2, 2-tert-Butyl-4-cyclobutyl-6-{4-[3-(4-methyl-4H-[1,2,4]triazole-3-sulfonyl)-propyl]-piperazin-1-yl}-pyrimidine]	14	52 nM		
Cn1cnnc1[S+]([O-])CCCN1CCN(c2cc(C3CCC3)nc(C(C)(C)C)n2)CC1 (centres unmarked) [Example 3, 2-tert-Butyl-4-cyclobutyl-6-{4-[3-(4-methyl-4H-[1,2,4]triazole-3-sulfinyl)-propyl]-piperazin-1-yl}-pyrimidine]	44	12 nM		
CCCc1cc(N2CCN(CCC[S+]([O-])c3nnc(CC)n3C)CC2)nc(C(C)(C)C)n1.Cl (centres unmarked) [Example 5, 2-tert-Butyl-4-{4-[3-(5-ethyl-4-methyl-4H-[1,2,4]triazole-3-sulfinyl)-propyl]-piperazin-1-yl}-6-propyl-pyrimidine hydrochloride]	37	38 nM		
Cc1nnc([S+]([O-])CCCN2CCN(c3cc(C4(C)CC4)nc(C(C)(C)C)n3)CC2)n1C (centres unmarked) [Example 6, 2-tert-Butyl-4-{4-[3-(4,5-dimethyl-4H-[1,2,4]triazole-3-sulfinyl)-propyl]-piperazin-1-yl}-6-(1-methyl-cyclopropyl)-pyrimidine]	20	28.7 nM		
CCCc1cc(N2CCN(CCC[S+]([O-])c3nnc(C)n3C)CC2)nc(C(C)(C)C)n1.Cl (centres unmarked) [Example 8, 2-tert-Butyl-4-{4-[3-(4,5-dimethyl-4H-[1,2,4]triazole-3-sulfinyl)-propyl]-piperazin-1-yl}-6-propyl-pyrimidine hydrochloride]	33	56 nM		
CCCc1cc(N2CCN(CCCS(=O)(=O)c3nnc(C)n3C)CC2)nc(C(C)(C)C)n1 [Example 9, 2-Di-tert-butyl-6-{4-[3-(4,5-dimethyl-4H-[1,2,4]triazole-3-sulfonyl)-propyl]-piperazin-1-yl}-6-propyl-pyrimidine]	45	18.3 nM		
Cc1nnc(S(=O)(=O)CCCN2CCN(c3cc(C4(C)CC4)nc(C(C)(C)C)n3)CC2)n1C [Example 10, 2-tert-Butyl-4-{4-[3-(4,5-dimethyl-4H-[1,2,4]triazole-3-sulfonyl)-propyl]-piperazin-1-yl}-6-(1-methyl-cyclopropyl)-pyrimidine]	37	7.8 nM		
CCCc1cc(N2CCN(CCCS(=O)(=O)c3nnc(CC)n3C)CC2)nc(C(C)(C)C)n1 [Example 12, 2-tert-Butyl-4-{4-[3-(5-ethyl-4-methyl-4H-[1,2,4]triazole-3-sulfonyl)-propyl]-piperazin-1-yl}-6-propyl-pyrimidine]	55	12.8 nM		
Cn1c(-c2ccc(F)cc2)nnc1[S+]([O-])CCCN1CCN(c2cc(C(F)(F)F)nc(C(C)(C)C)n2)CC1 (centres unmarked) [Example 15, 2-tert-Butyl-4-(4-{3-[5-(4-fluoro-phenyl)-4-methyl-4H[1,2,4]triazole-3-sulfinyl]-propyl}-piperazin-1-yl)-6-trifluoromethyl-pyrimidine]	100	12.6 nM		
Cl.Cn1c(-c2ccc(F)cc2)nnc1S(=O)(=O)CCCN1CCN(c2cc(C(F)(F)F)nc(C(C)(C)C)n2)CC1 [Example 16, 2-tert-Butyl-4-(4-{3-[5-(4-fluoro-phenyl)-4-methyl-4H-[1,2,4]triazole-3-sulfonyl]-propyl}-piperazin-1-yl)-6-trifluoromethyl-pyrimidine hydrochloride]	56	17.7 nM		
Cn1cnnc1S(=O)(=O)CCCN1CCN(c2cc(C(C)(C)C)nc(C(C)(C)C)n2)CC1 [Example 17, 2,4-Di-tert-butyl-6-{4-[3-(4-methyl-4H-[1,2,4]triazole-3-sulfonyl)-propyl]-piperazin-1-yl}-pyrimidine]				Selectivity [Ki(D2)/Ki(D3)] ([1]; Table 6): 53; Ki [2, 4]: 5.95 nM
Cn1cnnc1[S+]([O-])CCCN1CCN(c2cc(C(C)(C)C)nc(C(C)(C)C)n2)CC1 (centres unmarked) [Example 18, 2,4-Di-tert-butyl-6-{4-[3-(4-methyl-4H-[1,2,4]triazole-3-sulfinyl)-propyl]-piperazin-1-yl}-pyrimidine]				Selectivity [Ki(D2)/Ki(D3)] ([1]; Table 6): 17; Ki [2, 4]: 25 nM
Cl.Cn1cnc(S(=O)(=O)CCCN2CCN(c3cc(C(F)(F)F)nc(C(C)(C)C)n3)CC2)n1 [Example 19, 2-tert-Butyl-4-{4-[3-(1-methyl-1H-[1,2,4]triazole-3-sulfonyl)-propyl]-piperazin-1-yl}-6-trifluoromethyl-pyrimidine hydrochloride]				Selectivity [Ki(D2)/Ki(D3)] ([1]; Table 6): 17; Ki [2, 4]: 32 nM
Cl.Cn1ncnc1S(=O)(=O)CCCN1CCN(c2cc(C(C)(C)C)nc(C(C)(C)C)n2)CC1 [Example 20, 2,4-Di-tert-butyl-6-{4-[3-(2-methyl-2H-[1,2,4]triazole-3-sulfonyl)-propyl]-piperazin-1-yl}-pyrimidine hydrochloride]				Selectivity [Ki(D2)/Ki(D3)] ([1]; Table 6): 8; Ki [2, 4]: 26.2 nM
Cn1c(SCCCN2CCN(c3cc(C(F)(F)F)nc(C(C)(C)C)n3)CC2)nnc1C1CCCC1 [c.3, 2-tert-Butyl-4-{4-[3-(4-methyl-5-cyclopentyl-4H-[1,2,4]triazol-3-ylsulfanyl)-propyl]-piperazin-1-yl}-6-trifluoromethyl-pyrimidine trifluoroacetate]			< 5 nM	
Cn1c(SCCCN2CCN(c3cc(C(F)F)nc(C(C)(C)C)n3)CC2)nnc1C(F)(F)F [c.6, 2-tert-Butyl-4-{4-[3-(4-methyl-5-trifluoromethyl-4H-[1,2,4]triazol-3-ylsulfanyl)-propyl]-piperazin-1-yl}-6-difluoromethyl-pyrimidine hydrochloride]			< 5 nM	
Cn1c(SCCCN2CCN(c3cc(C(F)F)nc(C(C)(C)C)n3)CC2)nnc1C1CCC1 [c.20, 2-tert-Butyl-4-{4-[3-(4-methyl-5-cyclobutyl-4H-[1,2,4]triazol-3-ylsulfanyl)-propyl]-piperazin-1-yl}-6-difluoromethyl-pyrimidine hydrochloride]			< 5 nM	
Cn1c(SCCCN2CCN(c3cc(C(F)F)nc(C(C)(C)C)n3)CC2)nnc1C1CC1 [c.21, 2-tert-Butyl-4-{4-[3-(4-methyl-5-cyclopropyl-4H-[1,2,4]triazol-3-ylsulfanyl)-propyl]-piperazin-1-yl}-6-difluoromethyl-pyrimidine hydrochloride]			< 5 nM	
Cn1c(SCCCN2CCN(c3cc(C(F)(F)F)nc(C(C)(C)C)n3)CC2)nnc1C(C)(C)C [c.27, 2-tert-Butyl-4-{4-[3-(4-methyl-5-tert-butyl-4H-[1,2,4]triazol-3-ylsulfanyl)-propyl]-piperazin-1-yl}-6-trifluoromethyl-pyrimidine]			< 5 nM	
CCc1cc(N2CCN(CCCSc3nnc(C(F)(F)F)n3C)CC2)nc(C(C)(C)C)n1 [c.28, 2-tert-Butyl-4-{4-[3-(4-methyl-5-trifluoromethyl-4H-[1,2,4]triazol-3-ylsulfanyl)-propyl]-piperazin-1-yl}-6-ethyl-pyrimidine hydrochloride]			< 5 nM	
CCc1nnc(SCCCN2CCN(c3cc(C(F)F)nc(C(C)(C)C)n3)CC2)n1C [c.29, 2-tert-Butyl-4-{4-[3-(4-methyl-5-ethyl-4H-[1,2,4]triazol-3-ylsulfanyl)-propyl]-piperazin-1-yl}-6-difluoromethyl-pyrimidine hydrochloride]			< 5 nM	
